Source: patent US8222244B2, “Staurosporine derivatives as inhibitors of FLT3 receptor tyrosine kinase activity” (Novartis AG, priority 2001, dated 2012)

What follows are molecules tested against T1, human Flt-3 (Homo sapiens, UniProt P36888) (assay: Tyrosine protein kinase assay with purified GST-Flt-3 (33P incorporation)). Settings: at a 1.0 micromolar concentration.
T1 construct: expresses the amino acid region amino acids 563-993 of the intra-cytoplasmic kinase domains of human Flt-3; made in house; host or cells: Sf9 insect cells (baculovirus, pFbacG01 donor vector)
T1 sequence (P36888 563-993): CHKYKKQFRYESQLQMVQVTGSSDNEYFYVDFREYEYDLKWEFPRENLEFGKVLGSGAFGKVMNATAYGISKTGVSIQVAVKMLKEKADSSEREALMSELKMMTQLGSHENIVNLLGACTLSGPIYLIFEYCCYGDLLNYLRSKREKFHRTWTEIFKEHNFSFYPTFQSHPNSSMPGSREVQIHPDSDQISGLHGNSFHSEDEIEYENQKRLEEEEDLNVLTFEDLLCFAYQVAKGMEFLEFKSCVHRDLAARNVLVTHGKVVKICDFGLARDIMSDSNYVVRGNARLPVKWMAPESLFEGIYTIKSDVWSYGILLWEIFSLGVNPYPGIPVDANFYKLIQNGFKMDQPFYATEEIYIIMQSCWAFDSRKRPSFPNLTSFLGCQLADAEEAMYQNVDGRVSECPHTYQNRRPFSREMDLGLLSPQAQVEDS
Type: biochemical
Protocol: ATP into appropriate substrates.
The coding sequences for the cytoplasmic domain of Flt-3 was amplified by PCR from human c-DNA libraries (Clontech). The amplified DNA fragments and the pFbacG01 vector were made compatible for ligation by digestion with BamH1 and Hind III. […] The production of the viruses, the expression of proteins in Sf9 cells and the purification of the GST-fused proteins were performed as following:
(Generation of Bac- to Bac GST-fusion vectors); pFbacG01, pFbacGST2T and pFbacGSTx3 Bac-to-Bac™ donor vectors were generated from pAcG1, pAcG2T and pAcG3X respectively, which facilitate the expression of GST-fusion proteins with the possibility of cleavage with thrombin (pFbacGT2) or factor Xa (pFbacGSTx3) while pFbacG01 expresses no proteolytic cleavage site. These were generated in house by isolation of the DNA fragment containing the gene for GST with the C-terminal protease and restriction sites by restriction enzyme digestion of the relevant PharMingen baculovirus donor vector with EcoRV and EcoRI. This EcoRV/EcoRI fragment was ligated into the pFastBac1 vector which had been restriction digested with BamHI, blunt-ended by Klenow reaction and subsequently digested with EcoRI to generate a blunt-ended/EcoRI vector. (Production of virus); Transfer vectors containing the kinase domains were transfected into the DH10Bac cell line (GIBCO) and plated on selective agar plates. Colonies without insertion of the fusion sequence into the viral genome (carried by the bacteria) are blue. Single white colonies were picked and viral DNA (bacmid) isolated from the bacteria by standard plasmid purification procedures. Sf9 cells or Sf21 cells were then transfected in 25 cm^2 flasks with the viral DNA using Cellfectin reagent. (Determination of small scale protein expression in Sf9 cells); Virus containing media was collected from the transfected cell culture and used for infection to increase its titer. Virus containing media obtained after two rounds of infection was used for large-scale protein expression. For large-scale protein expression 100 cm^2 round tissue culture plates were seeded with 5×10^7 cells/plate and infected with 1 mL of virus-containing media (approx. 5 MOIs). After 3 days the cells were scraped off the plate and centrifuged at 500 rpm for 5 min. Cell pellets from 10-20, 100 cm^2 plates, were resuspended in 50 mL of ice-cold lysis buffer (25 mMTris-HCl, pH7.5, 2 mMEDTA, 1% NP-40, 1 mM DTT, 1 mMP MSF). The cells were stirred on ice for 15 min and then centrifuged at 5000 rpms for 20 min.
ATP 0.1 μCi). […] ATP into appropriate substrates. […] Subsequently, 40 μL of the reaction mixture were transferred onto Immobilon-PVDF membrane (Millipore, Bedford, Mass., USA) previously soaked for 5 min with methanol, rinsed with water, then soaked for 5 min with 0.5% H3PO4 and mounted on vacuum manifold with disconnected vacuum source. After spotting all samples, vacuum was connected and each well rinsed with 200 μL 0.5% H3PO4. Membranes were removed and washed 4× on a shaker with 1.0% H3PO4, once with ethanol. Membranes were counted after drying at ambient temperature, mounting in Packard TopCount 96-well frame, and addition of 10 μL/well of Microscint™ (Packard). […] One unit of protein kinase activity is defined as 1 nmole of ^33P ATP transferred from [γ^33P] ATP to the substrate protein per minute per mg of protein at 37° C.

Molecule | Flt3 Inhibition (percent inhibition of Flt3 kinase activity)
COC1C(N(C)C(=O)CNC(=O)OCc2ccccc2)CC2OC1(C)n1c3ccccc3c3c4c(c5c6ccccc6n2c5c31)C(=O)NC4 (stereo not drawn) [125035-78-1, (9a,10b,11b,13a)-[2-[(2,3,10,11,12,13-Hexahydro-10-methoxy-9-methyl-1-oxo-9,13-epoxy-1H,9H-diindolo[1,2,3-gh:3′,2′,1′-lm]pyrrolo[3,4-j][1,7]benzodiazonin-11-yl)methylamino]-2-oxoethyl]-carbamic acid, phenylmethyl ester] | 52%
CNC(=S)N(C)C1CC2OC(C)(C1OC)n1c3ccccc3c3c4c(c5c6ccccc6n2c5c31)C(=O)NC4 (stereo not drawn) [120685-13-4, (9a,10b,11b,13a)-N-(2,3,10,11,12,13-Hexahydro-10-methoxy-9-methyl-1-oxo-9,13-epoxy-1H,9H-diindolo[1,2,3-gh:3′,2′,1′-lm]pyrrolo[3,4-j][1,7]benzodiazonin-11-yl)-N,N′-dimethyl-thiourea] | 91%
(9a,10b,11b,13a)-11-[[N-Acetyl-4-O-acetyl-6-O-(1-oxooctadecyl)-1-O-(phenylmethyl)-a-muramoyl]methylamino]-2,3,10,11,12,13-hexahydro-10-methoxy-9-methyl-9,13-epoxy-1H,9H-diindolo[1,2,3-gh:3′,2′,1′-lm]pyrrolo[3,4-j][1,7]benzodiazonin-1-one [149622-62-8] | 22%
[9a,10b,11b(S*),13a]-phenylmethyl 2-(acetylamino)-2-deoxy-3-O-[1-[[(2,3,10,11,12,13-hexahydro-10-methoxy-9-methyl-1-oxo-9,13-epoxy-1H,9H-diindolo[1,2,3-gh:3′,2′,1′-lm]pyrrolo[3,4-j][1,7]benzodiazonin-11-yl)methylamino]carbonyl]propyl]-a-D-Glucopyranoside [149622-45-7] | 43%
[9S-(9a,10b,11b,13a)]-(2,3,10,11,12,13-Hexahydro-10-methoxy-9-methyl-1-oxo-9,13-epoxy-1H,9H-diindolo[1,2,3-gh:3′,2′,1′-lm]pyrrolo[3,4-j][1,7]benzodiazonin-11-yl)methyl-carbamic acid, 2-methylpropyl ester [154590-03-1] | 49%
COC1C(N(C)C(=O)c2cccnc2)CC2OC1(C)n1c3ccccc3c3c4c(c5c6ccccc6n2c5c31)C(=O)NC4 (stereo not drawn) [155848-16-1, [9S-(9a,10b,11b,13a)]-N-(2,3,10,11,12,13-Hexahydro-10-methoxy-9-methyl-1-oxo-9,13-epoxy-1H,9H-diindolo[1,2,3-gh:3′,2′,1′-lm]pyrrolo[3,4-g][1,7]benzodiazonin-11-yl)-N-methyl-3-pyridinecarboxamide] | 89%
COC1C(N(C)C(=O)C(F)(F)F)CC2OC1(C)n1c3ccccc3c3c4c(c5c6ccccc6n2c5c31)C(=O)NC4 [120685-12-3, 2,2,2-Trifluoro-N-[(9S,10R,11R,13R)-2,3,10,11,12,13-hexahydro-10-methoxy-9-methyl-1-oxo-9,13-epoxy-1H,9H-diindolo[1,2,3-gh:3′,2′,1′-lm]pyrrolo[3,4-j][1,7]benzodiazonin-11-yl]-N-methyl-acetamide] | 66%
COC1C(N(C)C(=O)CCN)CC2OC1(C)n1c3ccccc3c3c4c(c5c6ccccc6n2c5c31)C(=O)NC4.Cl (stereo not drawn) [124078-41-7, [9S-(9a,10b,11b,13a)]-3-Amino-N-(2,3,10,11,12,13-hexahydro-10-methoxy-9-methyl-1-oxo-9,13-epoxy-1H,9H-diindolo[1,2,3-gh:3′,2′,1′-lm]pyrrolo[3,4-j][1,7]benzodiazonin-11-yl)-N-methyl-propanamide, monohydrochloride] | 99%
(9a,10b,11b,13a)-11-[(N-Acetyl-a-muramoyl)methylamino]-2,3,10,11,12,13-hexahydro-10-methoxy-9-methyl-9,13-epoxy-1H,9H-diindolo[1,2,3-gh:3′,2′,1′-lm]pyrrolo[3,4-j][1,7]benzodiazonin-1-one [149622-53-7] | 91%
COC1C(N(C)C(=O)c2cc([N+](=O)[O-])cc([N+](=O)[O-])c2)CC2OC1(C)n1c3ccccc3c3c4c(c5c6ccccc6n2c5c31)C(=O)NC4 (stereo not drawn) [120685-18-9, [9S-(9a,10b,11b,13a)]-N-(2,3,10,11,12,13-Hexahydro-10-methoxy-9-methyl-1-oxo-9,13-epoxy-1H,9H-diindolo[1,2,3-gh:3′,2′,1′-lm]pyrrolo[3,4-j][1,7]benzodiazonin-11-yl)-N-methyl-3,5-dinitro-benzamide] | 63%
[9S-(9a,10b,13a)]-2,3,9,10,12,13-Hexahydro-10-hydroxy-9-methyl-9,13-epoxy-1H,11H-diindolo[1,2,3-gh:3′,2′,1′-lm]pyrrolo[3,4-j][1,7]benzodiazonine-1,11-dione, 11-oxime [187457-73-4] | 89%
CO[C@@H]1[C@H](N(C)C(=O)C(C)(C)OC2CCOCC2)C[C@H]2O[C@]1(C)n1c3ccccc3c3c4c(c5c6ccccc6n2c5c31)C(=O)NC4 [160251-55-8, [9S-(9a,10b,11b,13a)]-N-(2,3,10,11,12,13-Hexahydro-10-methoxy-9-methyl-1-oxo-9,13-epoxy-1H,9H-diindolo[1,2,3-gh:3′,2′,1′-lm]pyrrolo[3,4-j][1,7]benzodiazonin-11-yl)-N,2-dimethyl-2-[(tetrahydro-2H-pyran-4-yl)oxy]-propanamide] | 85%
COC1C(N(C)C(=O)c2ccc(O)cc2)CC2OC1(C)n1c3ccccc3c3c4c(c5c6ccccc6n2c5c31)C(=O)NC4 [165815-73-6, N-[(9S,10R,11R,13R)-2,3,10,11,12,13-Hexahydro-10-methoxy-9-methyl-1-oxo-9,13-epoxy-1H,9H-diindolo[1,2,3-gh:3′,2′,1′-lm]pyrrolo[3,4-j][1,7]benzodiazonin-11-yl]-4-hydroxy-N-methyl-benzamide] | 91%
(9a,10b,11b,13a)-N-(2,3,10,11,12,13-Hexahydro-10-methoxy-9-methyl-1-oxo-9,13-epoxy-1H,9H-diindolo[1,2,3-gh:3′,2′,1′-lm]pyrrolo[3,4-j][1,7]benzodiazonin-11-yl)-N-methyl-4-nitro-benzamide [120685-46-3] | 81%
COC1C(N(C)C(=O)C(C)OC2CCOCC2)CC2OC1(C)n1c3ccccc3c3c4c(c5c6ccccc6n2c5c31)C(=O)NC4 (stereo not drawn) [160335-31-9, [9S-[9a,10b,11b(R*),13a]]-N-(2,3,10,11,12,13-Hexahydro-10-methoxy-9-methyl-1-oxo-9,13-epoxy-1H,9H-diindolo[1,2,3-gh:3′,2′,1′-lm]pyrrolo[3,4-j][1,7]benzodiazonin-11-yl)-N-methyl-2-[(tetrahydro-2H-pyran-4-yl)oxy]-propanamide] | 90%
